Results as given in publication PMC9818021, “Targets, Mechanisms and Cytotoxicity of Half-Sandwich Ir(III) Complexes Are Modulated by Structural Modifications on the Benzazole Ancillary Ligand” (Cancers, 2022).

Key:
[1] = system: SW480 (colon adenocarcinoma cells); test: MTT cytotoxicity assay; format: cell-based, human; conditions: SW480, 48 h
Experimental: (§1) Cell culture. Epithelial ovarian carcinoma cells (A2780) that acquired resistance to cisplatin epithelial ovarian carcinoma cells (A2780cis), colon adenocarcinoma cells (SW480) and epithelial lung adenocarcinoma cells (A549) were provided by Sigma Aldrich. A549 and SW480 cells were grown in Dulbecco′s Modified Eagle′s Medium (DMEM), supplemented with 10% Fetal Bovine Serum (FBS) and 1% penicillin, streptomycin and 1% glutamine for A549 and 1% amphotericin B for SW480. The A2780 and A2780cis were grown in RPMI 1640 supplemented with 10% Fetal Bovine Serum (FBS), 1% glutamine and 1% penicillin, streptomycin and amphotericin B. All cells were incubated in a humidified incubator at 37 °C under a 5% CO2 atmosphere and grown in 100 mm culture dishes to approximately 70–80% confluence. For subculturing, cells were detached with Trypsin-EDTA (Sigma). A549-gal were derived from A549 cultured in glucose-free medium supplemented with 10 mM galactose (Sigma) for at least 10 passes.
(§2) Cytotoxicity. MTT Assay and IC50 estimation. The cytotoxicity of 1[C,NH-Cl], 2[C,NMe-Cl], 3[N,NH-Cl]Cl, 4[N,NMe-Cl]Cl, 5[CNH2,NH-Cl]Cl, 6[CNH2,S-Cl]Cl, 7[CO,NH-Cl] and 8[CO,S-Cl] in A2780, A2780cis, SW480 and A549 carcinoma cells was evaluated by the MTT colorimetric assay. Cells were seeded in 96-well plates at 5000 cells per well and incubated at 37 °C, 5% CO2. After 24 h, the medium was removed and replaced with fresh medium with different concentrations of the compounds under study, and they were incubated for 48 h. Final DMSO concentration was kept below 0.7% in wells. For a negative control, one sequence of cells was left untreated and for vehicle control, cells treated with DMSO were included. For cell viability experiments preincubating with NAC (N-Acetyl-L-Cysteine), the cells were pre-treated with NAC, 10 mM for 2 h before the incubation with complex 1[C,NH-Cl] for 24 h. Then, the medium was removed from the wells, and 100 µL MTT (5 mg/mL) was added. After an incubation time of 4 h, 100 μL of solubilizing detergent solution (SDS, 10% in HCL 0.01 M) was added and kept in the incubator overnight. Cell growth inhibition was detected by measuring the absorbance of each well at 595 nm using a BioTek Cytation5 microplate reader. Each test was repeated in quadruplicate in three independent experiments for each cell line. The percentage of survival cells was calculated using absorbance measurements compared with control and the IC50 estimation using Graph Pad Prism version 6.01.

[2] = system: A2780 (epithelial ovarian carcinoma cells); test: MTT cytotoxicity assay; format: cell-based, human; conditions: A2780, 48 h
Experimental: as §1, §2

[3] = system: A549 (epithelial lung adenocarcinoma cells); test: MTT cytotoxicity assay; format: cell-based, human; conditions: A549, 48 h
Experimental: as §1, §2

[4] = system: A2780cis (ovarian, acquired resistance to cisplatin); test: MTT cytotoxicity assay; format: cell-based, human; conditions: 48 h; for IC50: A2780cis
Experimental: as §1, §2

Calf thymus DNA = test: Kinetics of covalent binding to DNA (UV-vis, NMR); conditions: for Covalent binding to DNA: UV-Vis and NMR; for kc x 103 (rate constant of covalent binding to DNA): values are kc x 103, CP/CD = 20
Experimental: Materials. The iridium chloride salt (IrCl3·nH2O) was purchased from Johnson Mattey. The ligands 2-phenylbenzimidazole, 2-(2′-pyridylbenzimidazole), 2-(2′-aminophenylbenzimidazole), 2-(2′-aminophenylbenzothiazole), 2-(2′-hydroxyphenylbenzimidazole) and 2-(2′-hydroxyphenylbenzothiazole) were purchased from Sigma-Aldrich. The ligands 2-phenyl-N-methyl-benzimidazole and 2-(2′-pyridyl)l-N-methyl-benzimidazole were prepared according to slightly modified reported protocols. Deuterated solvents were obtained from SDS and Euriso-top. Unless otherwise specified, all the biological reagents were purchased from Merck Life Science S.L.U., Madrid, Spain. Calf thymus DNA provided as a highly polymerized lyophilized sodium salt was dissolved into doubly-deionized water and sonicated with an MSE-Sonyprep sonicator to reduce the polymer length at approximately 1000 base-pairs. The molar DNA concentration in base pairs, ε (260 nm) = 13,200 M^−1 cm^−1 [49], will be expressed as CP. BSA was supplied as crystallized and lyophilized powder (≥98%, agarose gel electrophoresis and ≤0.005% fatty acids); the BSA concentration of the stock solutions was spectrophotometrically determined as ε (278 nm) = 45,000 M^−1 cm^−1. All aqueous solutions were prepared with MilliQ-grade water using a Direct-Q8UV system from Millipore (Millipore Ibérica S.A., Madrid, Spain). All solvents were of analytical grade. The chemical studies were carried out in aqueous solutions at 25 °C, I = 2.5 mM sodium cacodylate (NaCaC) and pH between 6.0 and 7.1 unless other conditions are stated. All buffers with the biological components were of biological grade and used as received.
The UV-vis measurements were performed with a Hewlett-Packard 8453A (Agilent Technologies, Palo Alto, CA, USA) photodiode array spectrophotometer with a Peltier temperature control system. Titrations were carried out at 25 °C by adding increasing amounts of DNA solution to the iridium complex solution. The pKa values were measured by analysing the absorbance change of iridium complex solutions recorded at different pH values. The melting experiments were carried out using a DNA solution varying the CIr-complex/CDNA (CD/CP) ratio from 0 to 1, keeping CP constant and recording the absorbance spectra while heating from 25 to 90 °C at 0.3 °C/min.
The slow kinetic measurements were performed with the previous spectrophotometer while the fast kinetic measurements were performed in a stopped flow Bio-Logic SFM-300 spectrophotometer with an absorbance detection system and dead time below 3 ms. The kinetic curves, obtained averaging out at least five shots, were analysed with the Jandel (AISN software, Mapleton, OR) fitting package.
2 - Interaction wit h DNA
Aquo- complexes bind DNA(N7) more easily than their chlorido analogous[1],[2].
complexes were incubated overnight until the aquation process i s co m ple t ed. Water-insoluble
compounds were firstly dissolved in DMSO and then diluted in water.
From the fitting of absorbance-time graphs (Figure S8 ) to a biexponential analysis, two rate
constants were obtained. The fast reaction could be related to covalent binding, being k c t he
to DNA/Ir-complex rearrangements, so it was disregarded.
0. 174 3 [ N, NH] 4 [ N, NMe ]
Figure S13. Biexponential kinetic curves of DNA with A) 3[N,NH] CD = 1.0 3×1 0-5 M, B) 4[N,NMe] CD =
M, F) 8[CO,S] C D = 9.4 0×1 0- 6 M. CP/CD = 20.
Table S10. Rate constants for the covalent binding between the complexes and DNA.
The formation of covalent DNA/Ir-complex product (PD), can be represented according to the
where P represents the polynucleotide DNA and D the Iridium -metal complexes. Henceforth, CD
and CP stand for the analytical D and P concentrations, respectively.
Nevertheless, we observed that for each complex, the kc values remained essentially constant
with the increment of CP (Figure S9 ), proving that the reaction is monomolecular. Therefore, PD […]

## Cc1c(C)c(C)[c-](C)c1C.[Cl-].[Cl][Ir]1[n+]2ccccc2-c2[nH]c3ccccc3[n+]21 [3[N,NH], [(η^5-Cp*)IrCl(κ^2-N,N-pybim)]Cl]
[1]
  IC50: 90 ± 1 µM
[2]
  IC50: 84 ± 1 µM
[3]
  IC50: > 100 µM
[4]
  IC50: 48 ± 1 µM
Calf thymus DNA
  Covalent binding to DNA: able to covalently bind DNA
  kc x 103 (rate constant of covalent binding to DNA): 20 ± 2 s-1

## Cc1c(C)c(C)[c-](C)c1C.Cn1c2[n+](c3ccccc31)[Ir]([Cl])[n+]1ccccc1-2.[Cl-] [4[N,NMe], [(η^5-Cp*)IrCl(κ^2-N,N-pyMebim)]Cl]
[1]
  IC50: > 100 µM
[2]
  IC50: > 100 µM
[3]
  IC50: > 100 µM
[4]
  IC50: > 100 µM
Calf thymus DNA
  Covalent binding to DNA: able to covalently bind DNA
  kc x 103 (rate constant of covalent binding to DNA): 16 ± 1 s-1

## Cc1c(C)c(C)[c-](C)c1C.[Cl-].[Cl][Ir]1[NH2+]c2ccccc2-c2sc3ccccc3[n+]21 [6[CNH2,S], [(η^5-Cp*)IrCl(κ^2-N,N-apbtz)]Cl]
[1]
  IC50: 40 ± 1 µM
[2]
  IC50: > 100 µM
[3]
  IC50: > 100 µM
[4]
  IC50: 48 ± 2 µM
Calf thymus DNA
  Covalent binding to DNA: able to covalently bind DNA
  kc x 103 (rate constant of covalent binding to DNA): 6.4 ± 0.2 s-1

## Cc1c(C)c(C)[c-](C)c1C.[Cl][Ir]1[c]2ccccc2-c2[nH]c3ccccc3[n+]21 [1[C,NH], [(η^5-Cp*)IrCl(κ^2-N,C-pbim)]]
[1]
  IC50: 5 ± 2 µM
[2]
  IC50: 5 ± 2 µM
[3]
  IC50: 10 ± 1 µM
[4]
  Resistance Factor (RF) IC50,A2780CIS/IC50,A2780: no cross-resistance
  IC50: 5 ± 1 µM
Calf thymus DNA
  Covalent binding to DNA: ruled out

## Cc1c(C)c(C)[c-](C)c1C.[Cl][Ir]1[O]c2ccccc2-c2sc3ccccc3[n+]21 [8[CO,S], [(η^5-Cp*)IrCl(κ^2-O,N-hpbtz)]]
[1]
  IC50: 34 ± 1 µM
[2]
  IC50: 2 ± 1 µM
[3]
  IC50: 41 ± 5 µM
[4]
  Resistance Factor (RF) IC50,A2780CIS/IC50,A2780: > 2
  IC50: 6 ± 2 µM
Calf thymus DNA
  Covalent binding to DNA: able to covalently bind DNA
  kc x 103 (rate constant of covalent binding to DNA): 6.0 ± 0.2 s-1

## Cc1c(C)c(C)[c-](C)c1C.Cn1c2[n+](c3ccccc31)[Ir]([Cl])[c]1ccccc1-2 [2[C,NMe], [(η^5-Cp*)IrCl(κ^2-N,C-NMepbim)]]
[2]
  IC50: 9 ± 1 µM
[3]
  IC50: 10 ± 1 µM
[4]
  Resistance Factor (RF) IC50,A2780CIS/IC50,A2780: no cross-resistance
  IC50: 13 ± 1 µM
Calf thymus DNA
  Covalent binding to DNA: ruled out

## Cc1c(C)c(C)[c-](C)c1C.[Cl-].[Cl][Ir]1[NH2+]c2ccccc2-c2[nH]c3ccccc3[n+]21 [5[CNH2,NH], [(η^5-Cp*)IrCl(κ^2-N,N-apbim)]Cl]
[1]
  IC50: 34 ± 1 µM
[2]
  IC50: 17 ± 1 µM
[3]
  IC50: > 100 µM
[4]
  IC50: 30 ± 1 µM
Calf thymus DNA
  Covalent binding to DNA: able to covalently bind DNA
  kc x 103 (rate constant of covalent binding to DNA): 3.9 ± 0.1 s-1

## Cc1c(C)c(C)[c-](C)c1C.[Cl][Ir]1[O]c2ccccc2-c2[nH]c3ccccc3[n+]21 [7[CO,NH], [(η^5-Cp*)IrCl(κ^2-O,N-hpbim)]]
[1]
  IC50: > 100 µM
[2]
  IC50: 14 ± 1 µM
[3]
  IC50: 43 ± 3 µM
[4]
  Resistance Factor (RF) IC50,A2780CIS/IC50,A2780: > 2
  IC50: 42 ± 1 µM
Calf thymus DNA
  Covalent binding to DNA: able to covalently bind DNA
  kc x 103 (rate constant of covalent binding to DNA): 3.7 ± 0.1 s-1
